From PubChem BioAssay AID1845202 (Molecular Pharmacology Branch, DTP, NCI, 2023)

System: DMS 114 tumor spheroids, viability % test/control
Experiment: Anticancer human tumor DMS 114 cell line growth inhibition;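 also: spheroids exposed to compounds for 7 days before read-out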;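 as to viability, T/C: luminescence used as a proxy for viable cells; 100% = DMSO vehicle control viability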
Conditions: spheroids with HUVEC and MSC; for IC50: curve of first compound; for viability, T/C: stronger effect = lower value
In short: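 Complex tumor spheroids combined malignant cells with endothelial cells and mesenchymal stem cells. DNA-damaging drugs and DNA repair inhibitors were tested alone and in combination, at half-log dilutions down from clinical Cmax (top 10 microM if Cmax unknown), 0.25% DMSO final.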

[1] = second compound 0.003 µM, first compound 0.0316 µM
[2] = second compound 0.003 µM, first compound 0.1 µM
[3] = second compound 0.003 µM, first compound 0.316 µM
[4] = second compound 0.003 µM, first compound 1 µM
[5] = second compound 0.003 µM, first compound 3.16 µM
[6] = second compound 0.003 µM, first compound 10 µM
[7] = second compound 0.00949 µM, first compound 0.0316 µM
[8] = second compound 0.00949 µM, first compound 0.1 µM
[9] = second compound 0.00949 µM, first compound 0.316 µM
[10] = second compound 0.00949 µM, first compound 1 µM
[11] = second compound 0.00949 µM, first compound 3.16 µM
[12] = second compound 0.00949 µM, first compound 10 µM
[13] = second compound 0.03 µM, first compound 0.0316 µM
[14] = second compound 0.03 µM, first compound 0.1 µM
[15] = second compound 0.03 µM, first compound 0.316 µM
[16] = second compound 0.03 µM, first compound 1 µM
[17] = second compound 0.03 µM, first compound 3.16 µM
[18] = second compound 0.03 µM, first compound 10 µM
[19] = second compound 0.0949 µM, first compound 0.0316 µM
[20] = second compound 0.0949 µM, first compound 0.1 µM
[21] = second compound 0.0949 µM, first compound 0.316 µM
[22] = second compound 0.0949 µM, first compound 1 µM
[23] = second compound 0.0949 µM, first compound 3.16 µM
[24] = second compound 0.0949 µM, first compound 10 µM
[25] = second compound 0.3 µM, first compound 0.0316 µM
[26] = second compound 0.3 µM, first compound 0.1 µM
[27] = second compound 0.3 µM, first compound 0.316 µM
[28] = second compound 0.3 µM, first compound 1 µM
[29] = second compound 0.3 µM, first compound 3.16 µM
[30] = second compound 0.3 µM, first compound 10 µM

**Q.** With `CC1COCCN1c1cc(-c2ccnn2C)c2ccnc(-c3ccn[nH]3)c2n1` (stereo not given) + CC[C@@]1(O)C(=O)OCc2c1cc1n(c2=O)Cc2cc3c(CN(C)C)c(O)ccc3nc2-1 as the compound, how does the IC50 (second compound 0.003 µM) read?
**A.** Its IC50 is < 31.6 nM.

**Q.** And the IC50 (second compound 0.00949 µM)?
**A.** Its IC50 is < 31.6 nM.

**Q.** What about the IC50 (second compound 0.03 µM) of the same compound?
**A.** Its IC50 is < 31.6 nM.

**Q.** And the IC50 (second compound 0.0949 µM)?
**A.** Its IC50 is < 31.6 nM.

**Q.** And the IC50 (second compound 0.3 µM)?
**A.** Its IC50 is < 31.6 nM.

**Q.** And the viability, T/C [1]?
**A.** Its viability, T/C is 24.7%.

**Q.** And the viability, T/C [2]?
**A.** The viability, T/C was 20.3%.

**Q.** And the viability, T/C [3]?
**A.** Its viability, T/C is 15.8%.

**Q.** And the viability, T/C [4]?
**A.** The viability, T/C was 11.9%.

**Q.** And the viability, T/C [5]?
**A.** Its viability, T/C is 8.38%.

**Q.** And the viability, T/C [6]?
**A.** The viability, T/C was 8.31%.

**Q.** And the viability, T/C [7]?
**A.** The viability, T/C was 16.8%.

**Q.** And the viability, T/C [8]?
**A.** The viability, T/C was 16.3%.

**Q.** What about the viability, T/C [9] of the same compound?
**A.** Its viability, T/C is 15.2%.

**Q.** And the viability, T/C [10]?
**A.** Its viability, T/C is 10.5%.

**Q.** What about the viability, T/C [11] of the same compound?
**A.** The viability, T/C was 7.71%.

**Q.** And the viability, T/C [12]?
**A.** The viability, T/C was 8.35%.

**Q.** What about the viability, T/C [13] of the same compound?
**A.** Its viability, T/C is 13.2%.

**Q.** And the viability, T/C [14]?
**A.** Its viability, T/C is 13%.

**Q.** What about the viability, T/C [15] of the same compound?
**A.** The viability, T/C was 11.1%.

**Q.** And the viability, T/C [16]?
**A.** The viability, T/C was 8.42%.

**Q.** And the viability, T/C [17]?
**A.** The viability, T/C was 7.3%.

**Q.** And the viability, T/C [18]?
**A.** Its viability, T/C is 7.49%.

**Q.** And the viability, T/C [19]?
**A.** Its viability, T/C is 8.52%.

**Q.** And the viability, T/C [20]?
**A.** Its viability, T/C is 8.81%.

**Q.** And the viability, T/C [21]?
**A.** Its viability, T/C is 8.07%.

**Q.** And the viability, T/C [22]?
**A.** The viability, T/C was 7.09%.

**Q.** And the viability, T/C [23]?
**A.** Its viability, T/C is 6.17%.

**Q.** And the viability, T/C [24]?
**A.** Its viability, T/C is 7.21%.

**Q.** What about the viability, T/C [25] of the same compound?
**A.** Its viability, T/C is 6.92%.

**Q.** And the viability, T/C [26]?
**A.** The viability, T/C was 7.23%.

**Q.** And the viability, T/C [27]?
**A.** Its viability, T/C is 6.75%.

**Q.** And the viability, T/C [28]?
**A.** Its viability, T/C is 6.68%.

**Q.** What about the viability, T/C [29] of the same compound?
**A.** The viability, T/C was 6.95%.

**Q.** What about the viability, T/C [30] of the same compound?
**A.** Its viability, T/C is 7.43%.

**Q.** Which IC50 (second compound 0.003 µM) does the source give for `COc1cc(C)[nH]c(=O)c1CN1CCc2c(Cl)cc(C(OC)C3COC3)c(Cl)c2C1=O` (stereo not given) + CC[C@@]1(O)C(=O)OCc2c1cc1n(c2=O)Cc2cc3c(CN(C)C)c(O)ccc3nc2-1 here?
**A.** The IC50 was > 10000 nM.

**Q.** And the IC50 (second compound 0.00949 µM)?
**A.** The IC50 was 1920 nM.

**Q.** And the IC50 (second compound 0.03 µM)?
**A.** Its IC50 is < 31.6 nM.

**Q.** And the IC50 (second compound 0.0949 µM)?
**A.** Its IC50 is < 31.6 nM.

**Q.** And the IC50 (second compound 0.3 µM)?
**A.** The IC50 was < 31.6 nM.

**Q.** And the viability, T/C [1]?
**A.** The viability, T/C was 103%.

**Q.** And the viability, T/C [2]?
**A.** The viability, T/C was 88.5%.

**Q.** And the viability, T/C [3]?
**A.** The viability, T/C was 83.4%.

**Q.** And the viability, T/C [4]?
**A.** Its viability, T/C is 77%.

**Q.** What about the viability, T/C [5] of the same compound?
**A.** The viability, T/C was 66%.

**Q.** And the viability, T/C [6]?
**A.** Its viability, T/C is 61.2%.

**Q.** What about the viability, T/C [7] of the same compound?
**A.** Its viability, T/C is 88.3%.

**Q.** And the viability, T/C [8]?
**A.** The viability, T/C was 74.2%.

**Q.** And the viability, T/C [9]?
**A.** The viability, T/C was 64.1%.

**Q.** What about the viability, T/C [10] of the same compound?
**A.** The viability, T/C was 57.5%.

**Q.** And the viability, T/C [11]?
**A.** Its viability, T/C is 49.3%.

**Q.** What about the viability, T/C [12] of the same compound?
**A.** The viability, T/C was 32.1%.

**Q.** And the viability, T/C [13]?
**A.** The viability, T/C was 39.2%.

**Q.** And the viability, T/C [14]?
**A.** Its viability, T/C is 34%.

**Q.** What about the viability, T/C [15] of the same compound?
**A.** The viability, T/C was 32.1%.

**Q.** What about the viability, T/C [16] of the same compound?
**A.** The viability, T/C was 30.6%.

**Q.** What about the viability, T/C [17] of the same compound?
**A.** The viability, T/C was 24.4%.

**Q.** What about the viability, T/C [18] of the same compound?
**A.** The viability, T/C was 18.5%.

**Q.** What about the viability, T/C [19] of the same compound?
**A.** Its viability, T/C is 16.8%.

**Q.** And the viability, T/C [20]?
**A.** The viability, T/C was 16.3%.

**Q.** What about the viability, T/C [21] of the same compound?
**A.** The viability, T/C was 18.4%.

**Q.** And the viability, T/C [22]?
**A.** The viability, T/C was 17.1%.

**Q.** And the viability, T/C [23]?
**A.** The viability, T/C was 15.2%.

**Q.** And the viability, T/C [24]?
**A.** Its viability, T/C is 12%.

**Q.** What about the viability, T/C [25] of the same compound?
**A.** Its viability, T/C is 10.3%.

**Q.** What about the viability, T/C [26] of the same compound?
**A.** Its viability, T/C is 11.2%.

**Q.** And the viability, T/C [27]?
**A.** The viability, T/C was 10.6%.

**Q.** What about the viability, T/C [28] of the same compound?
**A.** Its viability, T/C is 11.4%.

**Q.** What about the viability, T/C [29] of the same compound?
**A.** The viability, T/C was 11.1%.

**Q.** And the viability, T/C [30]?
**A.** Its viability, T/C is 10.7%.

**Q.** What does the source list for `Cc1cc(C)c(CNC(=O)c2cc(-c3ccc(CN4CCOCC4)cc3)cc3c2cnn3C2CCCC2)c(=O)[nH]1` + CC[C@@]1(O)C(=O)OCc2c1cc1n(c2=O)Cc2cc3c(CN(C)C)c(O)ccc3nc2-1?
**A.** IC50 (second compound 0.003 µM): > 10000 nM; IC50 (second compound 0.00949 µM): > 10000 nM; IC50 (second compound 0.03 µM): < 31.6 nM; IC50 (second compound 0.0949 µM): < 31.6 nM; IC50 (second compound 0.3 µM): < 31.6 nM; viability, T/C [1]: 112%; viability, T/C [2]: 117%; viability, T/C [3]: 108%; viability, T/C [4]: 106%; viability, T/C [5]: 98.2%; viability, T/C [6]: 59.6%; viability, T/C [7]: 96.2%; viability, T/C [8]: 105%; viability, T/C [9]: 95.4%; viability, T/C [10]: 97.1%; viability, T/C [11]: 84.9%; viability, T/C [12]: 58.9%; viability, T/C [13]: 33.3%; viability, T/C [14]: 39.5%; viability, T/C [15]: 28.3%; viability, T/C [16]: 35.5%; viability, T/C [17]: 32.1%; viability, T/C [18]: 30.7%; viability, T/C [19]: 16%; viability, T/C [20]: 15.5%; viability, T/C [21]: 14.8%; viability, T/C [22]: 16%; viability, T/C [23]: 17.2%; viability, T/C [24]: 15.5%; viability, T/C [25]: 9.14%; viability, T/C [26]: 9.67%; viability, T/C [27]: 9.76%; viability, T/C [28]: 10.1%; viability, T/C [29]: 12.1%; viability, T/C [30]: 17.6%

**Q.** Which results are given for `[2H]c1nc(C)nc([2H])c1-c1cc(NC[C@@H](C)c2cccc3c(C(=O)NC)ccnc23)ncn1` + CC[C@@]1(O)C(=O)OCc2c1cc1n(c2=O)Cc2cc3c(CN(C)C)c(O)ccc3nc2-1?
**A.** IC50 (second compound 0.003 µM): > 10000 nM; IC50 (second compound 0.00949 µM): > 10000 nM; IC50 (second compound 0.03 µM): < 31.6 nM; IC50 (second compound 0.0949 µM): < 31.6 nM; IC50 (second compound 0.3 µM): < 31.6 nM; viability, T/C [1]: 114%; viability, T/C [2]: 113%; viability, T/C [3]: 112%; viability, T/C [4]: 121%; viability, T/C [5]: 105%; viability, T/C [6]: 88.5%; viability, T/C [7]: 93%; viability, T/C [8]: 96.2%; viability, T/C [9]: 92.4%; viability, T/C [10]: 79%; viability, T/C [11]: 68.3%; viability, T/C [12]: 58.9%; viability, T/C [13]: 35.3%; viability, T/C [14]: 35%; viability, T/C [15]: 32.8%; viability, T/C [16]: 27.7%; viability, T/C [17]: 24%; viability, T/C [18]: 18.9%; viability, T/C [19]: 17%; viability, T/C [20]: 16.7%; viability, T/C [21]: 17.1%; viability, T/C [22]: 16.9%; viability, T/C [23]: 13.7%; viability, T/C [24]: 13.7%; viability, T/C [25]: 11%; viability, T/C [26]: 11%; viability, T/C [27]: 11.4%; viability, T/C [28]: 9.27%; viability, T/C [29]: 12.8%; viability, T/C [30]: 12.3%
